According to paper PMC2748937 (Nature structural & molecular biology, 2009):

Assays:
Grb14 RA-PH K252A = target: T1, Grb14 RA-PH K252A (Homo sapiens, UniProt Q14449, K252A); test: Fluorescence-polarization phosphoinositide binding, Grb14 RA-PH K252A; settings: Grb14 K252A vs WT
T1 sequence (Q14449 106-356 K252A limits assumed): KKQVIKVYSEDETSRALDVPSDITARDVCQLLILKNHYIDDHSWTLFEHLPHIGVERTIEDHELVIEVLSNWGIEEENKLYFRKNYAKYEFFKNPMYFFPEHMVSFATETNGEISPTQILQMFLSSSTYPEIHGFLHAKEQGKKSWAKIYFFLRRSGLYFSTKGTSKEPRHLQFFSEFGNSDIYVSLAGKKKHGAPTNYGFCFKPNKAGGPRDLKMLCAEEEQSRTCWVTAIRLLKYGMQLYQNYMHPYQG

[1] = tested on: Grb14 recruitment to the insulin receptor; format: cell-based; settings: co-immunoprecipitation, data not shown
crystal structure = target: the molecule itself; test: crystal structure

CCCCCC(=O)O[C@H](COC(=O)CCCCCNC(=O)CCC1=C(C)C2=Cc3ccc(-c4ccc(OC)cc4)n3[B-](F)(F)[N+]2=C1C)COP(=O)(O)O[C@H]1[C@H](O)[C@@H](OP(=O)(O)O)[C@H](OP(=O)(O)O)[C@@H](OP(=O)(O)O)[C@H]1O [345P3, PI(3,4,5)P3]
decrease in binding affinity relative to wild-type (Grb14 RA-PH K252A): more than three

COC[C@H]1OC(=O)c2coc3c2[C@@]1(C)C1=C(C3=O)[C@@H]2CCC(=O)[C@@]2(C)C[C@H]1OC(C)=O [wortmannin]
effect on recruitment of Grb14 to the insulin receptor [1]: PI-3K activity is not required for Grb14 recruitment to the receptor

B1: Grb10 RA-PH (residues 106-357 of human Grb10 isoform c (domain or fragment)
chain: GSHMAAAKQDVKVFSEDGTSKVVEILADMTARDLCQLLVYKSHSVDDNSWTLVEHHPHLGLERCLEDHELVVQVESTMASESKFLFRKNYAKYEFFKNPMNFFPEQMVTWSQQSNGSQTQLLQNFLNSSSSPEIQGFLHVKELGKKSWKKLYVCLRRSGLYCSTKGTSAAPRHLQLLADLEDSNIFSLIAGRKQYNAPTDHGLCIKPNKVRNETKELRLLCAEDEQTRTSWMTAFRLLKYGMLLYQNYRIPQQRKA
binding result (crystal structure): binds
